One test concerns the target T1, mouse GnRH receptor (Mus musculus, UniProt Q01776).
T1 construct: expressed in transfected cells; host or cells: 293 cells
T1 sequence (Q01776 1-327): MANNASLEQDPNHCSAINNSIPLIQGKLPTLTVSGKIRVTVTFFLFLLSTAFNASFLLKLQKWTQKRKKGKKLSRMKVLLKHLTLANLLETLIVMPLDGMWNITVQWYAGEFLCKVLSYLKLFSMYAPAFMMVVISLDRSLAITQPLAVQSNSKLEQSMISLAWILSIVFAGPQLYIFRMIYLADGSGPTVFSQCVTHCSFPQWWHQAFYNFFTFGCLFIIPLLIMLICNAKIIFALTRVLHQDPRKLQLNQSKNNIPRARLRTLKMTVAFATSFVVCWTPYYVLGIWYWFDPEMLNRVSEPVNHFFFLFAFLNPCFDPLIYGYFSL
The test is described as follows: Radioligand binding, 125I-GnRH-A, 293 cells expressing mouse GnRH receptors. As to conditions: 10 uM; read-out: % Inhib. @ 10 uM mGnRH. In a few lines: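 Bound label captured on 0.1% polyethyleneimine-treated GF/C filters, washed three times with PBS, counted. IC50 derived; identical set-up for every species.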
As to `Cc1cc2c(cc1Cc1ccc(C(=O)NC(C)CO)o1)C(C)(C)CCC2(C)C` (centres unmarked) [drawing 1241], the inhibition at 10 µM was found to be 82%.

Take `CCCCN(CCCC)CCCNC(=O)c1ccc(Cc2cc3c(cc2C)C(C)(C)CCC3(C)C)o1` [drawing 1242]: the inhibition at 10 µM amounted to 103%.

Turning to `Cc1cc2c(cc1Cc1ccc(C(=O)NC3CCN(Cc4ccccc4)C3)o1)C(C)(C)CCC2(C)C` (centres unmarked) [drawing 1243], the inhibition at 10 µM was 101%.

For the molecule `CCN(CC)CCCNC(=O)c1ccc(Cc2cc3c(cc2C)C(C)(C)CCC3(C)C)o1` [drawing 1244], the inhibition at 10 µM worked out at 100%.

For `Cc1cc2c(cc1Cc1ccc(C(=O)N3CCC(n4c(=O)[nH]c5ccccc54)CC3)o1)C(C)(C)CCC2(C)C` [drawing 1246], the inhibition at 10 µM came out at 80%.

Regarding `Cc1cc2c(cc1Cc1ccc(C(=O)N3CCN(CCOCCO)CC3)o1)C(C)(C)CCC2(C)C` [drawing 1252], the inhibition at 10 µM turned out to be 63%.

For `COc1cc2c(cc1OC)CN(C(=O)c1ccc(Cc3cc4c(cc3C)C(C)(C)CCC4(C)C)o1)CC2` [drawing 1253], the inhibition at 10 µM was 46%.

The same test, now with this note: 1 h, substrate remaining; 10 uM compound; closer to zero = closer to 100% inhibition; read-out: S%R 10 uM mGnRHR.
With `Cc1cc2c(cc1Cc1ccc(C(=O)N3CCCC(C)(C)C3)o1)C(C)(C)CCC2(C)C` [Compound 657], the remaining activity at 10 µM is 3%.

Regarding `Cc1cc2c(cc1Cc1ccc(C(=O)N3CCN(Cc4ccc(C(C)(C)C)cc4)CC3)o1)C(C)(C)CCC2(C)C` [Compound 658], the remaining activity at 10 µM came out at 35%.

Regarding `Cc1cc2c(cc1Cc1ccc(C(=O)N3CCCC3C)o1)C(C)(C)CCC2(C)C` (centres unmarked) [Compound 659], the remaining activity at 10 µM was -2%.

In the case of `CCN1CC(N(CCC(C)CCCC(C)(C)O)C(=O)c2ccc(Cc3cc4c(cc3C)C(C)(C)CCC4(C)C)o2)CN1CC` (centres unmarked) [Compound 660], the remaining activity at 10 µM is -4%.

As for `Cc1cc2c(cc1Cc1ccc(C(=O)N3CCC(NC(=O)C(F)(F)F)C3)o1)C(C)(C)CCC2(C)C` (centres unmarked) [Compound 661], the remaining activity at 10 µM amounted to 41%.

`COC(OC)C(C)NC(=O)c1ccc(Cc2cc3c(cc2C)C(C)(C)CCC3(C)C)o1` (centres unmarked) [Compound 662]: the remaining activity at 10 µM was found to be 3%.

As to `COc1cccc(N2CCN(C(=O)c3ccc(Cc4cc5c(cc4C)C(C)(C)CCC5(C)C)o3)CC2C)c1` (centres unmarked) [Compound 663], the remaining activity at 10 µM was 25%.

`CCN(C(=O)c1ccc(Cc2cc3c(cc2C)C(C)(C)CCC3(C)C)o1)C1CCCCC1` [Compound 664]: the remaining activity at 10 µM was determined as 1%.

Turning to `Cc1cc2c(cc1Cc1ccc(C(=O)N(Cc3cccnc3)Cc3ccco3)o1)C(C)(C)CCC2(C)C` [Compound 665], the remaining activity at 10 µM stood at 12%.

In the case of `CCC(CC)NC(=O)c1ccc(Cc2cc3c(cc2C)C(C)(C)CCC3(C)C)o1` [Compound 666], the remaining activity at 10 µM came out at 24%.

For the molecule `Cc1cc2c(cc1Cc1ccc(C(=O)N(CCc3ccccc3)Cc3ccoc3)o1)C(C)(C)CCC2(C)C` [Compound 667], the remaining activity at 10 µM worked out at 39%.

Take `CCN1CC(N(CCC(C)c2ccccc2)C(=O)c2ccc(Cc3cc4c(cc3C)C(C)(C)CCC4(C)C)o2)CN1CC` (centres unmarked) [Compound 668]: the remaining activity at 10 µM came to 6%.

`CCCOCCNC(=O)c1ccc(Cc2cc3c(cc2C)C(C)(C)CCC3(C)C)o1` [Compound 669]: the remaining activity at 10 µM was -3%.

Turning to `Cc1cc2c(cc1Cc1ccc(C(=O)N3CCC(n4c(=O)[nH]c5ccccc54)CC3)o1)C(C)(C)CCC2(C)C` [Compound 670], the remaining activity at 10 µM stood at 16%.

On to `Cc1cc2c(cc1Cc1ccc(C(=O)NCCC(C)O)o1)C(C)(C)CCC2(C)C` (centres unmarked) [Compound 671], for which the remaining activity at 10 µM stood at 12%.

Take `Cc1cc2c(cc1Cc1ccc(C(=O)N(CCC#N)CCC#N)o1)C(C)(C)CCC2(C)C` [Compound 672]: the remaining activity at 10 µM was determined as 23%.

As for `CCCC(CO)NC(=O)c1ccc(Cc2cc3c(cc2C)C(C)(C)CCC3(C)C)o1` (centres unmarked) [Compound 673], the remaining activity at 10 µM was 2%.

As for `COc1ccccc1CN(C(=O)c1ccc(Cc2cc3c(cc2C)C(C)(C)CCC3(C)C)o1)C1CCN(Cc2ccccc2)C1` (centres unmarked) [Compound 674], the remaining activity at 10 µM is 10%.

Consider `CSCCC(CO)NC(=O)c1ccc(Cc2cc3c(cc2C)C(C)(C)CCC3(C)C)o1` (centres unmarked) [Compound 675], for which the remaining activity at 10 µM was -5%.

Turning to `Cc1cc2c(cc1Cc1ccc(C(=O)NCCC3OCCO3)o1)C(C)(C)CCC2(C)C` [Compound 676], the remaining activity at 10 µM was -4%.

As for `Cc1cc2c(cc1Cc1ccc(C(=O)N3CCc4ccccc4C3Cc3ccccc3)o1)C(C)(C)CCC2(C)C` (centres unmarked) [Compound 677], the remaining activity at 10 µM was 54%.

As to `Cc1cc2c(cc1Cc1ccc(C(=O)NCCc3c[nH]c4ccc(O)cc34)o1)C(C)(C)CCC2(C)C` [Compound 678], the remaining activity at 10 µM came to 17%.

On to `CCC(O)CNC(=O)c1ccc(Cc2cc3c(cc2C)C(C)(C)CCC3(C)C)o1` (centres unmarked) [Compound 679], for which the remaining activity at 10 µM came to 1%.

As to `CCCCN(C)C(=O)c1ccc(Cc2cc3c(cc2C)C(C)(C)CCC3(C)C)o1` [Compound 680], the remaining activity at 10 µM amounted to 0%.

Take `Cc1cc2c(cc1Cc1ccc(C(=O)N(Cc3ccco3)C3CCN(Cc4ccccc4)C3)o1)C(C)(C)CCC2(C)C` (centres unmarked) [Compound 681]: the remaining activity at 10 µM is 6%.

Turning to `Cc1cc2c(cc1Cc1ccc(C(=O)NCc3cccc(NC(=O)NC(Cc4ccccc4)c4ccccc4)c3)o1)C(C)(C)CCC2(C)C` (centres unmarked) [Compound 682], the remaining activity at 10 µM is 59%.

As to `CC[C@H](C)C(CO)NC(=O)c1ccc(Cc2cc3c(cc2C)C(C)(C)CCC3(C)C)o1` (some centres unmarked) [Compound 683], the remaining activity at 10 µM came out at 23%.

`CCOC(=O)CCNC(=O)c1ccc(Cc2cc3c(cc2C)C(C)(C)CCC3(C)C)o1` [Compound 684]: the remaining activity at 10 µM was found to be 2%.

For the molecule `Cc1cc2c(cc1Cc1ccc(C(=O)NC(C)CO)o1)C(C)(C)CCC2(C)C` (centres unmarked) [Compound 685], the remaining activity at 10 µM is 19%.

On to `Cc1cc2c(cc1Cc1ccc(C(=O)N3CCN(CCOCCO)CC3)o1)C(C)(C)CCC2(C)C` [Compound 686], for which the remaining activity at 10 µM is 37%.

Consider `CCCNC(=O)c1ccc(Cc2cc3c(cc2C)C(C)(C)CCC3(C)C)o1` [Compound 687], for which the remaining activity at 10 µM came to 7%.

Consider `Cc1cc2c(cc1Cc1ccc(C(=O)N(Cc3cccnc3)Cc3cccn3C)o1)C(C)(C)CCC2(C)C` [Compound 688], for which the remaining activity at 10 µM was 0%.

For `CCOC(CN(CCc1ccccc1)C(=O)c1ccc(Cc2cc3c(cc2C)C(C)(C)CCC3(C)C)o1)OCC` [Compound 689], the remaining activity at 10 µM was found to be 34%.

For `COc1cccc(CN(Cc2cccc(Oc3cccc(C(F)(F)F)c3)c2)C(=O)c2ccc(Cc3cc4c(cc3C)C(C)(C)CCC4(C)C)o2)c1OC` [Compound 690], the remaining activity at 10 µM was determined as 25%.

As for `Cc1cc2c(cc1Cc1ccc(C(=O)N(Cc3cccnc3)CC3CC=CCC3)o1)C(C)(C)CCC2(C)C` (centres unmarked) [Compound 691], the remaining activity at 10 µM worked out at 7%.

`CCCCN(CCCC)CCCNC(=O)c1ccc(Cc2cc3c(cc2C)C(C)(C)CCC3(C)C)o1` [Compound 692]: the remaining activity at 10 µM was -2%.

On to `COc1cc2c(cc1OC)CN(C(=O)c1ccc(Cc3cc4c(cc3C)C(C)(C)CCC4(C)C)o1)CC2` [Compound 693], for which the remaining activity at 10 µM came to 55%.

Turning to `Cc1cc2c(cc1Cc1ccc(C(=O)N3CCN(C(=O)c4ccco4)CC3)o1)C(C)(C)CCC2(C)C` [Compound 694], the remaining activity at 10 µM stood at 11%.

On to `CCCCN(C(=O)c1ccc(Cc2cc3c(cc2C)C(C)(C)CCC3(C)C)o1)C(C)c1ccccc1` (centres unmarked) [Compound 695], for which the remaining activity at 10 µM is 35%.

On to `Cc1cc2c(cc1Cc1ccc(C(=O)N(Cc3ccccc3)Cc3ccc(Cl)c(Cl)c3)o1)C(C)(C)CCC2(C)C` [Compound 696], for which the remaining activity at 10 µM amounted to 21%.

Take `CCCN(CCc1ccccn1)C(=O)c1ccc(Cc2cc3c(cc2C)C(C)(C)CCC3(C)C)o1` [Compound 697]: the remaining activity at 10 µM is 1%.

In the case of `Cc1cc2c(cc1Cc1ccc(C(=O)N3CCC(CNC(=O)C(F)(F)F)CC3)o1)C(C)(C)CCC2(C)C` [Compound 698], the remaining activity at 10 µM was found to be 59%.

As for `Cc1cc2c(cc1Cc1ccc(C(=O)NC3CCN(Cc4ccccc4)C3)o1)C(C)(C)CCC2(C)C` (centres unmarked) [Compound 699], the remaining activity at 10 µM was -1%.

`Cc1cc2c(cc1Cc1ccc(C(=O)N(CCCN(C)C)CCCN(C)C)o1)C(C)(C)CCC2(C)C` [Compound 700]: the remaining activity at 10 µM came to 30%.

Turning to `Cc1cc2c(cc1Cc1ccc(C(=O)N3CCN(C4CCCCC4)CC3)o1)C(C)(C)CCC2(C)C` [Compound 701], the remaining activity at 10 µM was -1%.

On to `Cc1ccc(N2CCN(C(=O)c3ccc(Cc4cc5c(cc4C)C(C)(C)CCC5(C)C)o3)CC2C)cc1` (centres unmarked) [Compound 702], for which the remaining activity at 10 µM amounted to 28%.

In the case of `Cc1cc2c(cc1Cc1ccc(C(=O)N(Cc3cccnc3)Cc3ccccc3F)o1)C(C)(C)CCC2(C)C` [Compound 703], the remaining activity at 10 µM came to 5%.

Take `COC(=O)C1CCCN1C(=O)c1ccc(Cc2cc3c(cc2C)C(C)(C)CCC3(C)C)o1` (centres unmarked) [Compound 704]: the remaining activity at 10 µM came to 4%.

For `Cc1cc2c(cc1Cc1ccc(C(=O)N(CCC#N)Cc3ccco3)o1)C(C)(C)CCC2(C)C` [Compound 705], the remaining activity at 10 µM is 23%.

As for `Cc1cc2c(cc1Cc1ccc(C(=O)NC(CO)CC(C)C)o1)C(C)(C)CCC2(C)C` (centres unmarked) [Compound 706], the remaining activity at 10 µM is 3%.

`CCN(CC)CCCNC(=O)c1ccc(Cc2cc3c(cc2C)C(C)(C)CCC3(C)C)o1` [Compound 707]: the remaining activity at 10 µM amounted to 0%.

Consider `Cc1cc2c(cc1Cc1ccc(C(=O)N(CCN(C)C)Cc3ccccc3)o1)C(C)(C)CCC2(C)C` [Compound 708], for which the remaining activity at 10 µM was -4%.

These data come from patent US7101878B1 (Agouron Pharmaceuticals, Inc., priority 1998, dated 2006).
